In patent US9708314B2, “Heterocyclic amide compound” (NISSAN CHEMICAL INDUSTRIES, LTD., priority 2013, dated 2017):

Experiments:
Assay type in all cases: in vivo
Cyperus difformis = experiment: Test Example 3: herbicidal effect by application to foliage (Wagner pot, water depth 0.1-0.5 cm); conditions: Nineteenth Table; application to foliage; application herbicide amount 320 g/ha
Summary of the method: (§1)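 Three weeks after spraying, each species was graded 0–5 for herbicidal ratio, 5 being 90% or more. Application: water-diluted emulsifiable concentrate at a fixed g/ha to foliage of 14-day-old greenhouse (25–30 °C) plants in alluvial soil.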

[1] = tested on: Echinochloa crus-galli var. crus-galli; experiment: as above; conditions: Nineteenth Table; application to foliage; application herbicide amount 320 g/ha
Summary of the method: as §1

Leptochloa chinensis = experiment: as above; conditions: Nineteenth Table; application to foliage; application herbicide amount 320 g/ha
Summary of the method: as §1

Monochoria vaginalis = experiment: Test Example 1: herbicidal activity, application before weed generation in submerged conditions; conditions: Application herbicide amount 320 g/ha; Seventeenth Table
Summary of the method: (§2)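 Pre-emergence water-surface application under 4 cm flooding, same day as sowing, with rice transplanted at 2.5 leaf stage. Dose given as g/ha. Plants grown at 25° C. to 30° C. and rated three weeks later on a 0 (≤5%) to 5 (≥90%) herbicidal-ratio scale.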

Scirpus juncoides = experiment: as above; conditions: Application herbicide amount 320 g/ha; Seventeenth Table
Summary of the method: as §2

[2] = tested on: Echinochloa oryzacola Vasing.; experiment: as above; conditions: Application herbicide amount 320 g/ha; Seventeenth Table
Summary of the method: as §2

[3] = tested on: transplanted Oryza sativa; experiment: Test Example 1: effect on crop, application before weed generation in submerged conditions; conditions: Application herbicide amount 320 g/ha; Seventeenth Table
Summary of the method: as §2

Setaria viridis = experiment: Test Example 4: herbicidal effect by application to foliage (diluvial soil, plastic box); conditions: for G: herbicidal effect on Setaria viridis: application to foliage, application herbicide amount 320 g/ha; for G (Setaria viridis) herbicidal effect grade / G: Application herbicide amount 320 g/ha; for G (Setaria viridis) herbicidal effect grade: foliage application
Summary of the method: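 Seeds sown in sterilized diluvial soil, covered ~1.5 cm, grown 14 days in greenhouse at 25° C. to 30° C. Emulsion formulation diluted in water to set rate (g/ha) and sprayed onto stems and leaves. Effect scored visually 3 weeks later on 0–5 scale (5 = ≥90% herbicidal ratio, 0 = ≤5%).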

[4] = tested on: directly sowed Oryza sativa; experiment: Test Example 3: effect on crop by application to foliage (Wagner pot, water depth 0.1-0.5 cm); conditions: Nineteenth Table; application to foliage; application herbicide amount 320 g/ha
Summary of the method: as §1

Structure (SMILES): CCCc1nnc2c(C(=O)Nc3nnnn3C)ccc(C(F)(F)F)n12 [2-019]
- E (herbicidal effect grade) (Cyperus difformis): 5 (Herbicidal ratio of 90% or more (almost completely withered))
- H (herbicidal effect grade) [1]: 5 (Herbicidal ratio of 90% or more (almost completely withered))
- D (herbicidal effect grade) (Leptochloa chinensis): 5 (Herbicidal ratio of 90% or more (almost completely withered))
- C: Monochoria vaginalis (herbicidal effect grade) (Monochoria vaginalis): 4 (Herbicidal ratio of 70% or more and less than 90%)
- B: Scirpus juncoides (herbicidal effect grade) (Scirpus juncoides): 5 (Herbicidal ratio of 90% or more (almost completely withered))
- A: Echinochloa oryzicola Vasing. (herbicidal effect grade) [2]: 5 (Herbicidal ratio of 90% or more (almost completely withered))
- a: transplanted Oryza sativa (effect on crop grade) [3]: 2 (Herbicidal ratio of 20% or more and less than 40%)
- G: herbicidal effect on Setaria viridis (Setaria viridis): 5 (Herbicidal ratio of 90% or more (almost completely withered))
- b (effect on crop grade) [4]: 5 (Herbicidal ratio of 90% or more (almost completely withered))

Structure (SMILES): Cc1nnc(NC(=O)c2ccc(C(F)(F)F)n3c(N(C)C4CCCCC4)nnc23)o1 [1-133]
- E (herbicidal effect grade) (Cyperus difformis): 0 (Herbicidal ratio of 5% or less (almost no effect))
- H (herbicidal effect grade) [1]: 4 (Herbicidal ratio of 70% or more and less than 90%)
- D (herbicidal effect grade) (Leptochloa chinensis): 2 (Herbicidal ratio of 20% or more and less than 40%)
- C: Monochoria vaginalis (herbicidal effect grade) (Monochoria vaginalis): 4 (Herbicidal ratio of 70% or more and less than 90%)
- B: Scirpus juncoides (herbicidal effect grade) (Scirpus juncoides): 3 (Herbicidal ratio of 40% or more and less than 70%)
- A: Echinochloa oryzicola Vasing. (herbicidal effect grade) [2]: 5 (Herbicidal ratio of 90% or more (almost completely withered))
- a: transplanted Oryza sativa (effect on crop grade) [3]: 0 (Herbicidal ratio of 5% or less (almost no effect))
- G (Setaria viridis) herbicidal effect grade (Setaria viridis): 0 (Herbicidal ratio of 5% or less (almost no effect))
- b (effect on crop grade) [4]: 0 (Herbicidal ratio of 5% or less (almost no effect))

Structure (SMILES): Cc1nnc(NC(=O)c2ccc(C(F)(F)F)n3c(SCC4OCCO4)nnc23)o1 [1-126]
- E (herbicidal effect grade) (Cyperus difformis): 4 (Herbicidal ratio of 70% or more and less than 90%)
- H (herbicidal effect grade) [1]: 4 (Herbicidal ratio of 70% or more and less than 90%)
- D (herbicidal effect grade) (Leptochloa chinensis): 4 (Herbicidal ratio of 70% or more and less than 90%)
- C: Monochoria vaginalis (herbicidal effect grade) (Monochoria vaginalis): 2 (Herbicidal ratio of 20% or more and less than 40%)
- B: Scirpus juncoides (herbicidal effect grade) (Scirpus juncoides): 4 (Herbicidal ratio of 70% or more and less than 90%)
- A: Echinochloa oryzicola Vasing. (herbicidal effect grade) [2]: 3 (Herbicidal ratio of 40% or more and less than 70%)
- a: transplanted Oryza sativa (effect on crop grade) [3]: 0 (Herbicidal ratio of 5% or less (almost no effect))
- G (Setaria viridis) herbicidal effect grade (Setaria viridis): 3 (Herbicidal ratio of 40% or more and less than 70%)
- b (effect on crop grade) [4]: 0 (Herbicidal ratio of 5% or less (almost no effect))

Structure (SMILES): CCOCc1nnc2c(C(=O)Nc3nnnn3C)ccc(C(F)(F)F)n12 [2-026]
- E (herbicidal effect grade) (Cyperus difformis): 5 (Herbicidal ratio of 90% or more (almost completely withered))
- H (herbicidal effect grade) [1]: 5 (Herbicidal ratio of 90% or more (almost completely withered))
- D (herbicidal effect grade) (Leptochloa chinensis): 5 (Herbicidal ratio of 90% or more (almost completely withered))
- C: Monochoria vaginalis (herbicidal effect grade) (Monochoria vaginalis): 4 (Herbicidal ratio of 70% or more and less than 90%)
- B: Scirpus juncoides (herbicidal effect grade) (Scirpus juncoides): 5 (Herbicidal ratio of 90% or more (almost completely withered))
- A: Echinochloa oryzicola Vasing. (herbicidal effect grade) [2]: 5 (Herbicidal ratio of 90% or more (almost completely withered))
- a: transplanted Oryza sativa (effect on crop grade) [3]: 4 (Herbicidal ratio of 70% or more and less than 90%)
- G: herbicidal effect on Setaria viridis (Setaria viridis): 4 (Herbicidal ratio of 70% or more and less than 90%)
- b (effect on crop grade) [4]: 5 (Herbicidal ratio of 90% or more (almost completely withered))

Structure (SMILES): O=C(Nc1nnco1)c1ccc(C(F)(F)F)n2c(N3CCCC3)nnc12 [1-139]
- E (herbicidal effect grade) (Cyperus difformis): 5 (Herbicidal ratio of 90% or more (almost completely withered))
- H (herbicidal effect grade) [1]: 4 (Herbicidal ratio of 70% or more and less than 90%)
- D (herbicidal effect grade) (Leptochloa chinensis): 5 (Herbicidal ratio of 90% or more (almost completely withered))
- C: Monochoria vaginalis (herbicidal effect grade) (Monochoria vaginalis): 3 (Herbicidal ratio of 40% or more and less than 70%)
- B: Scirpus juncoides (herbicidal effect grade) (Scirpus juncoides): 4 (Herbicidal ratio of 70% or more and less than 90%)
- A: Echinochloa oryzicola Vasing. (herbicidal effect grade) [2]: 5 (Herbicidal ratio of 90% or more (almost completely withered))
- a: transplanted Oryza sativa (effect on crop grade) [3]: 2 (Herbicidal ratio of 20% or more and less than 40%)
- G (Setaria viridis) herbicidal effect grade (Setaria viridis): 3 (Herbicidal ratio of 40% or more and less than 70%)
- b (effect on crop grade) [4]: 1 (Herbicidal ratio of 5% or more and less than 20%)

Structure (SMILES): COCCOC(=O)Cc1nnc2c(C(=O)Nc3nnc(C)o3)ccc(C(F)(F)F)n12 [1-060]
- E (herbicidal effect grade) (Cyperus difformis): 3 (Herbicidal ratio of 40% or more and less than 70%)
- H (herbicidal effect grade) [1]: 5 (Herbicidal ratio of 90% or more (almost completely withered))
- D (herbicidal effect grade) (Leptochloa chinensis): 4 (Herbicidal ratio of 70% or more and less than 90%)
- C: Monochoria vaginalis (herbicidal effect grade) (Monochoria vaginalis): 3 (Herbicidal ratio of 40% or more and less than 70%)
- B: Scirpus juncoides (herbicidal effect grade) (Scirpus juncoides): 4 (Herbicidal ratio of 70% or more and less than 90%)
- A: Echinochloa oryzicola Vasing. (herbicidal effect grade) [2]: 4 (Herbicidal ratio of 70% or more and less than 90%)
- a: transplanted Oryza sativa (effect on crop grade) [3]: 2 (Herbicidal ratio of 20% or more and less than 40%)
- G (Setaria viridis): 3 (Herbicidal ratio of 40% or more and less than 70%)
- b (effect on crop grade) [4]: 2 (Herbicidal ratio of 20% or more and less than 40%)

Structure (SMILES): O=C(Nc1nnco1)c1ccc(C(F)(F)F)n2c(N3CCOCC3)nnc12 [1-110]
- E (herbicidal effect grade) (Cyperus difformis): 5 (Herbicidal ratio of 90% or more (almost completely withered))
- H (herbicidal effect grade) [1]: 5 (Herbicidal ratio of 90% or more (almost completely withered))
- D (herbicidal effect grade) (Leptochloa chinensis): 5 (Herbicidal ratio of 90% or more (almost completely withered))
- C: Monochoria vaginalis (herbicidal effect grade) (Monochoria vaginalis): 4 (Herbicidal ratio of 70% or more and less than 90%)
- B: Scirpus juncoides (herbicidal effect grade) (Scirpus juncoides): 4 (Herbicidal ratio of 70% or more and less than 90%)
- A: Echinochloa oryzicola Vasing. (herbicidal effect grade) [2]: 5 (Herbicidal ratio of 90% or more (almost completely withered))
- a: transplanted Oryza sativa (effect on crop grade) [3]: 4 (Herbicidal ratio of 70% or more and less than 90%)
- G (Setaria viridis) herbicidal effect grade (Setaria viridis): 5 (Herbicidal ratio of 90% or more (almost completely withered))
- b (effect on crop grade) [4]: 5 (Herbicidal ratio of 90% or more (almost completely withered))

Structure (SMILES): Cn1nnnc1NC(=O)c1ccc(C(F)(F)F)n2c(Cl)nnc12 [2-008]
- E (herbicidal effect grade) (Cyperus difformis): 4 (Herbicidal ratio of 70% or more and less than 90%)
- H (herbicidal effect grade) [1]: 4 (Herbicidal ratio of 70% or more and less than 90%)
- D (herbicidal effect grade) (Leptochloa chinensis): 5 (Herbicidal ratio of 90% or more (almost completely withered))
- C: Monochoria vaginalis (herbicidal effect grade) (Monochoria vaginalis): 4 (Herbicidal ratio of 70% or more and less than 90%)
- B: Scirpus juncoides (herbicidal effect grade) (Scirpus juncoides): 4 (Herbicidal ratio of 70% or more and less than 90%)
- A: Echinochloa oryzicola Vasing. (herbicidal effect grade) [2]: 4 (Herbicidal ratio of 70% or more and less than 90%)
- a: transplanted Oryza sativa (effect on crop grade) [3]: 1 (Herbicidal ratio of 5% or more and less than 20%)
- G: herbicidal effect on Setaria viridis (Setaria viridis): 2 (Herbicidal ratio of 20% or more and less than 40%)
- b (effect on crop grade) [4]: 0 (Herbicidal ratio of 5% or less (almost no effect))

Structure (SMILES): CCSc1nnc2c(C(=O)Nc3nnnn3C)ccc(C(F)(F)F)n12 [2-024]
- E (herbicidal effect grade) (Cyperus difformis): 5 (Herbicidal ratio of 90% or more (almost completely withered))
- H (herbicidal effect grade) [1]: 5 (Herbicidal ratio of 90% or more (almost completely withered))
- D (herbicidal effect grade) (Leptochloa chinensis): 5 (Herbicidal ratio of 90% or more (almost completely withered))
- C: Monochoria vaginalis (herbicidal effect grade) (Monochoria vaginalis): 5 (Herbicidal ratio of 90% or more (almost completely withered))
- B: Scirpus juncoides (herbicidal effect grade) (Scirpus juncoides): 5 (Herbicidal ratio of 90% or more (almost completely withered))
- A: Echinochloa oryzicola Vasing. (herbicidal effect grade) [2]: 5 (Herbicidal ratio of 90% or more (almost completely withered))
- a: transplanted Oryza sativa (effect on crop grade) [3]: 5 (Herbicidal ratio of 90% or more (almost completely withered))
- G: herbicidal effect on Setaria viridis (Setaria viridis): 5 (Herbicidal ratio of 90% or more (almost completely withered))
- b (effect on crop grade) [4]: 5 (Herbicidal ratio of 90% or more (almost completely withered))

Structure (SMILES): Cc1nnc(NC(=O)c2ccc(C(F)(F)F)n3c(-c4cc5ccccc5n4C)nnc23)o1 [1-059]
- E (herbicidal effect grade) (Cyperus difformis): 3 (Herbicidal ratio of 40% or more and less than 70%)
- H (herbicidal effect grade) [1]: 0 (Herbicidal ratio of 5% or less (almost no effect))
- D (herbicidal effect grade) (Leptochloa chinensis): 3 (Herbicidal ratio of 40% or more and less than 70%)
- C: Monochoria vaginalis (herbicidal effect grade) (Monochoria vaginalis): 2 (Herbicidal ratio of 20% or more and less than 40%)
- B: Scirpus juncoides (herbicidal effect grade) (Scirpus juncoides): 3 (Herbicidal ratio of 40% or more and less than 70%)
- A: Echinochloa oryzicola Vasing. (herbicidal effect grade) [2]: 2 (Herbicidal ratio of 20% or more and less than 40%)
- a: transplanted Oryza sativa (effect on crop grade) [3]: 0 (Herbicidal ratio of 5% or less (almost no effect))
- G (Setaria viridis): 0 (Herbicidal ratio of 5% or less (almost no effect))
- b (effect on crop grade) [4]: 0 (Herbicidal ratio of 5% or less (almost no effect))
